#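 Growth conditions: 96-well plates. Treatment: test compound, 48 hours, 5 concentrations. Analysis: linear interpolation between bracketing concentrations; unreached endpoints set to highest concentration. At the GI50, growth is halved. TGI: total growth inhibition.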
# Assays:
# Experiment in all cases: NCI-60 cell line screen, 48 h
# [1] = test system: NCI-H23 lung
# [2] = test system: A498 renal
# [3] = test system: PC-3 prostate
# [4] = test system: UACC-62 melanoma
# [5] = test system: OVCAR-8 ovarian
# [6] = test system: HCC-2998 colon
# [7] = test system: HOP-92 NSCLC
# [8] = test system: ACHN renal
# [9] = test system: HT29 colon
# [10] = test system: T-47D breast
# [11] = test system: OVCAR-5 ovarian
# [12] = test system: CCRF-CEM leukemia
# [13] = test system: SW-620 colon
# [14] = test system: UACC-257 melanoma
# [15] = test system: COLO 205 colon
# [16] = test system: M14 melanoma
# [17] = test system: HOP-62 NSCLC
# [18] = test system: HCT-116 colon
# [19] = test system: U251 CNS
# [20] = test system: NCI-H226 lung
# [21] = test system: MALME-3M melanoma
# [22] = test system: EKVX NSCLC
# [23] = test system: LOX IMVI melanoma
# [24] = test system: MDA-MB-231 breast
# [25] = test system: RPMI-8226 leukemia
# [26] = test system: KM12 colon
# [27] = test system: BT-549 breast
smiles,measurement,setting,value
COc1ccc2c(CNCCCCO)cc3cc4c(cc3c2c1)OCO4,GI50,[1],2240 nM
same,TGI,[1],6430 nM
same,GI50,[2],1160 nM
same,TGI,[2],2980 nM
same,GI50,[3],986 nM
same,TGI,[3],7180 nM
same,GI50,[4],1590 nM
same,TGI,[4],3290 nM
same,GI50,[5],341 nM
same,TGI,[5],6680 nM
same,GI50,[6],1660 nM
same,TGI,[6],6570 nM
same,GI50,[7],598 nM
same,TGI,[7],4400 nM
same,GI50,[8],891 nM
same,TGI,[8],3700 nM
same,GI50,[9],1290 nM
same,TGI,[9],6870 nM
same,GI50,[10],3710 nM
same,TGI,[10],> 46700 nM
same,GI50,[11],2720 nM
same,TGI,[11],8950 nM
same,GI50,[12],777 nM
same,TGI,[12],10900 nM
same,GI50,[13],228 nM
same,TGI,[13],2350 nM
same,GI50,[14],823 nM
same,TGI,[14],2880 nM
same,GI50,[15],1360 nM
same,TGI,[15],4410 nM
same,GI50,[16],2070 nM
same,TGI,[16],4680 nM
same,GI50,[17],1980 nM
same,TGI,[17],10600 nM
same,GI50,[18],609 nM
same,TGI,[18],9500 nM
same,GI50,[19],1850 nM
same,TGI,[19],7290 nM
same,GI50,[20],638 nM
same,TGI,[20],1620 nM
same,GI50,[21],1650 nM
same,TGI,[21],4080 nM
same,GI50,[22],2780 nM
same,TGI,[22],11400 nM
same,GI50,[23],1250 nM
same,TGI,[23],5370 nM
same,GI50,[24],2060 nM
same,TGI,[24],6200 nM
same,GI50,[25],655 nM
same,TGI,[25],3770 nM
same,GI50,[26],1830 nM
same,TGI,[26],7330 nM
same,GI50,[27],3830 nM
same,TGI,[27],11900 nM

# Reference: PubChem BioAssay (NCI)
